This passage reports T/C results from PubChem BioAssay AID274 (DTP/NCI, 2004).

Several values for one entry are separate records, joined by “and”; a condition that tells them apart may be missing. Equal entries are not always repeated. Inconclusive results and toxic doses are left out.

In this assay the test system is BDF1 mice, Lewis lung carcinoma iv, survival T/C. The assay can be described thus: NCI In Vivo Anticancer Drug Screen. Data for tumor model Lewis Lung Carcinoma (intravenous) in B6D2F1 (BDF1) mice. To be noted: endpoint: median survival time, higher = longer survival. Here is the method:
The antitumor activity of compounds was measured in mice bearing transplantable tumors. Survival or tumor size were measured and the results are expressed as the measurement made in the treated group (T) divided by the measurement made in the vehicle treated control group (C). The tumor model used in this assay is Lewis Lung Carcinoma (intravenous) in B6D2F1 (BDF1) mice

[1] abbreviates: dose: 100.0 mg/kg/injection, schedule: Q01DX009 (ip), vehicle: saline with Tween-80.

In the case of `COc1cccc2c1C(=O)c1c(O)c3c(c(O)c1C2=O)C[C@@](O)(C(=O)CO)C[C@@H]3OC1CC(N)C(O)C(C)O1` (stereo partly drawn), the T/C (dose: 0.12 mg/kg/injection, schedule: Q01DX009 (ip), vehicle: saline) was 97 % of control; the T/C (dose: 0.25 mg/kg/injection, schedule: Q01DX009 (ip), vehicle: saline) is 99 % of control and 110 % of control and 90 % of control; the T/C (dose: 0.5 mg/kg/injection, schedule: Q01DX009 (ip), vehicle: saline) was 99 % of control and 106 % of control and 113 % of control; the T/C (dose: 0.5 mg/kg/injection, schedule: Q04DX003 (ip), vehicle: saline) is 100 % of control; the T/C (dose: 0.88 mg/kg/injection, schedule: Q01DX009 (ip), vehicle: saline) was 107 % of control; the T/C (dose: 1.0 mg/kg/injection, schedule: Q01DX009 (ip), vehicle: saline) is 100 % of control and 111 % of control and 280 % of control. In addition, the T/C is 92 % of control and 95 % of control (dose: 1.0 mg/kg/injection, schedule: Q04DX003 (ip), vehicle: saline); 121 % of control (dose: 1.26 mg/kg/injection, schedule: Q01DX009 (ip), vehicle: saline); 111 % of control (dose: 1.92 mg/kg/injection, schedule: Q04DX003 (ip), vehicle: saline); 112 % of control and 122 % of control (dose: 2.0 mg/kg/injection, schedule: Q01DX001 (ip), vehicle: saline); 112 % of control and 115 % of control (dose: 2.0 mg/kg/injection, schedule: Q01DX009 (ip), vehicle: saline); 96 % of control and 110 % of control (dose: 2.0 mg/kg/injection, schedule: Q04DX003 (ip), vehicle: saline). The T/C runs as follows: (dose: 2.57 mg/kg/injection, schedule: Q01DX009 (ip), vehicle: saline) 197 % of control; (dose: 3.6 mg/kg/injection, schedule: Q01DX001 (im), vehicle: water) 113 % of control; (dose: 3.9 mg/kg/injection, schedule: Q04DX003 (ip), vehicle: saline) 225 % of control; (dose: 4.0 mg/kg/injection, schedule: Q01DX001 (ip), vehicle: saline) 114 % of control; (dose: 4.0 mg/kg/injection, schedule: Q04DX003 (ip), vehicle: saline) 101 % of control and 105 % of control; (dose: 4.8 mg/kg/injection, schedule: Q01DX001 (iv), vehicle: saline) 114 % of control and 115 % of control and 123 % of control. The T/C was 253 % of control (dose: 5.6 mg/kg/injection, schedule: Q04DX003 (ip), vehicle: saline); 101 % of control (dose: 6.0 mg/kg/injection, schedule: Q01DX001 (im), vehicle: water); 151 % of control (dose: 6.86 mg/kg/injection, schedule: Q01DX001 (iv), vehicle: saline); 154 % of control and 169 % of control (dose: 8.0 mg/kg/injection, schedule: Q01DX001 (ip), vehicle: saline); 105 % of control (dose: 8.0 mg/kg/injection, schedule: Q04DX003 (ip), vehicle: saline); 195 % of control (dose: 9.8 mg/kg/injection, schedule: Q01DX001 (iv), vehicle: saline). Besides, the T/C (dose: 14.0 mg/kg/injection, schedule: Q01DX001 (iv), vehicle: saline) is 175 % of control and 333 % of control.

As to `O=[N+]([O-])c1ccc(Sc2ccncn2)c([N+](=O)[O-])c1`, the T/C is 91 % of control (dose: 12.5 mg/kg/injection, schedule: Q01DX009 (ip), vehicle: saline with Tween-80); 112 % of control (dose: 25.0 mg/kg/injection, schedule: Q01DX009 (ip), vehicle: saline with Tween-80); 95 % of control (dose: 50.0 mg/kg/injection, schedule: Q01DX009 (ip), vehicle: saline with Tween-80); 107 % of control under setting [1].

As for `CN1C(=O)NC(c2ccc(Cl)cc2)(c2ccc(Cl)cc2)C1=O`, the T/C was 102 % of control (dose: 12.5 mg/kg/injection, schedule: Q01DX009 (ip), vehicle: distilled water + Tween-80); 124 % of control (dose: 25.0 mg/kg/injection, schedule: Q01DX009 (ip), vehicle: distilled water + Tween-80); 116 % of control (dose: 50.0 mg/kg/injection, schedule: Q01DX009 (ip), vehicle: distilled water + Tween-80); 105 % of control (dose: 200.0 mg/kg/injection, schedule: Q01DX009 (ip), vehicle: distilled water + Tween-80).

In the case of `Nc1ncnc2c1cnn2Cc1ccc(Cl)cc1`, the T/C is 112 % of control (dose: 25.0 mg/kg/injection, schedule: Q01DX009 (ip), vehicle: saline); 98 % of control (dose: 50.0 mg/kg/injection, schedule: Q01DX009 (ip), vehicle: saline); 158 % of control under setting [1]; 98 % of control (dose: 100.0 mg/kg/injection, schedule: Q01DX009 (ip), vehicle: saline); 109 % of control (dose: 200.0 mg/kg/injection, schedule: Q01DX009 (ip), vehicle: saline with Tween-80).

For `C=C(C)/C([O-])=N/[N+](C)(C)CC(O)CCCCCCCCCCCC` (stereo not drawn), the T/C by setting is: (dose: 12.5 mg/kg/injection, schedule: Q01DX001 (ip), vehicle: saline) 99 % of control; (dose: 50.0 mg/kg/injection, schedule: Q01DX001 (ip), vehicle: saline) 86 % of control; (dose: 100.0 mg/kg/injection, schedule: Q01DX001 (ip), vehicle: saline) 92 % of control; (dose: 200.0 mg/kg/injection, schedule: Q01DX001 (ip), vehicle: saline) 104 % of control; (dose: 400.0 mg/kg/injection, schedule: Q01DX001 (ip), vehicle: saline) 87 % of control.

Turning to `CC[PH+](CC)CC[S-].CC[PH+](CC)CC[S-].[Au+].[Au+]`, the T/C is 115 % of control (dose: 2.5 mg/kg/injection, schedule: Q01DX009 (ip), vehicle: Klucel (hydroxypropylcellulose) (HPC)); 102 % of control (dose: 5.0 mg/kg/injection, schedule: Q01DX009 (ip), vehicle: Klucel (hydroxypropylcellulose) (HPC)); 109 % of control (dose: 10.0 mg/kg/injection, schedule: Q01DX009 (ip), vehicle: Klucel (hydroxypropylcellulose) (HPC)); 114 % of control (dose: 20.0 mg/kg/injection, schedule: Q01DX009 (ip), vehicle: Klucel (hydroxypropylcellulose) (HPC)); 102 % of control (dose: 40.0 mg/kg/injection, schedule: Q01DX009 (ip), vehicle: Klucel (hydroxypropylcellulose) (HPC)); 109 % of control (dose: 80.0 mg/kg/injection, schedule: Q01DX009 (ip), vehicle: Klucel (hydroxypropylcellulose) (HPC)).

On to `CC1CCC(NC(=O)N(CCCl)N=O)CC1` (stereo not drawn), for which the T/C (dose: 5.0 mg/kg/injection, schedule: Q01DX001 (ip), vehicle: saline) was 100 % of control; the T/C (dose: 10.0 mg/kg/injection, schedule: Q01DX001 (ip), vehicle: saline) is 100 % of control; the T/C (dose: 24.0 mg/kg/injection, schedule: Q01DX001 (ip), vehicle: saline with Tween-80) is 156 % of control; the T/C (dose: 24.0 mg/kg/injection, schedule: Q06DX002 (ip), vehicle: saline with Tween-80) was 176 % of control and 270 % of control; the T/C (dose: 30.0 mg/kg/injection, schedule: Q01DX001 (ip), vehicle: saline) is 94 % of control and 103 % of control; the T/C (dose: 30.0 mg/kg/injection, schedule: Q06DX002 (ip), vehicle: saline with Tween-80) was 220 % of control and 260 % of control. Also, the T/C (dose: 36.0 mg/kg/injection, schedule: Q01DX001 (ip), vehicle: saline with Tween-80) is 162 % of control and 185 % of control and 205 % of control; the T/C (dose: 40.0 mg/kg/injection, schedule: Q01DX001 (ip), vehicle: saline) was 103 % of control.

Turning to `CC(CN1CC(=O)NC(=O)C1)N1CC(=O)NC(=O)C1` (stereo not drawn), the T/C (dose: 64.8 mg/kg/injection, schedule: Q04DX003 (ip), vehicle: Klucel (hydroxypropylcellulose) (HPC)) was 110 % of control and 112 % of control and 119 % of control; the T/C (dose: 108.0 mg/kg/injection, schedule: Q04DX003 (ip), vehicle: Klucel (hydroxypropylcellulose) (HPC)) was 111 % of control and 114 % of control; the T/C (dose: 300.0 mg/kg/injection, schedule: Q04DX003 (ip), vehicle: Klucel (hydroxypropylcellulose) (HPC)) is 154 % of control and 178 % of control.

Regarding `C/C=C/C=C/c1cc2cc3c(c(O)c2c(=O)[nH]1)C1(CC3)C(O)=c2c(=O)c3c(=O)cc(OC)c(=O)c=3c(=O)c2=C1O` (stereo not drawn), the T/C is 97 % of control (dose: 0.06 mg/kg/injection, schedule: Q01DX009 (ip), vehicle: DMSO); 102 % of control (dose: 0.12 mg/kg/injection, schedule: Q01DX009 (ip), vehicle: DMSO); 95 % of control and 101 % of control (dose: 0.25 mg/kg/injection, schedule: Q01DX009 (ip), vehicle: DMSO); 102 % of control (dose: 0.5 mg/kg/injection, schedule: Q01DX009 (ip), vehicle: DMSO); 102 % of control (dose: 16.0 micrograms/kg/injection, schedule: Q01DX009 (ip), vehicle: DMSO); 93 % of control (dose: 31.0 micrograms/kg/injection, schedule: Q01DX009 (ip), vehicle: DMSO). Besides, the T/C (dose: 62.0 micrograms/kg/injection, schedule: Q01DX009 (ip), vehicle: DMSO) was 91 % of control and the T/C (dose: 125.0 micrograms/kg/injection, schedule: Q01DX009 (ip), vehicle: DMSO) was 102 % of control.
